# Tested on: db/db (BKS.Cg—+Lepr^db/+Lepr^db) mice
# Assay: Plasma glucose after 21 days of administration in powder chow, alone or with pioglitazone
# Format: in vivo
# Details: male db/db mice, 21 days in chow, fed condition; 0.03% (w/w) succinate salt of Compound I and/or 0.0075% (w/w) pioglitazone hydrochloride; mean (n=7) ± SD
# Source text: Male db/db (BKS.Cg—+Lepr^db/+Lepr^db) mice (6 weeks of age, CLEA Japan (Tokyo, Japan)) were divided into 4 groups (n=7 in each group) comprising Group A to Group D. Group A had free access to CE-2 powder chow (CLEA Japan) for 21 days. […] During 21 days of administration of the powder chow, there were not significant differences in the administration amount of the powder chow in the above 4 groups. After 21 days of administration of the powder chow, blood samples were taken from the orbital veins of the mice by capillary pipette under feeding condition, and plasma glucose levels were enzymatically measured by using Autoanalyzer 7080 (Hitachi, Japan). The values in the table means average (n=7)±standard deviation.
structure (smiles),measurement,value
"Cn1c(=O)cc(N2CCC[C@@H](N)C2)n(Cc2cc(F)ccc2C#N)c1=O [Compound I, 2-[6-(3-Amino-piperidin-1-yl)-3-methyl-2,4-dioxo-3,4-dihydro-2H-pyrimidin-1-ylmethyl]-4-fluoro-benzonitrile]",Plasma Glucose,410.3 ± 47.9 mg/dL

# From patent publication US8906901B2, “Administration of dipeptidyl peptidase inhibitors” (priority 2005, dated 2014)
